{"source": "patent US8933031B2", "about": "“Polypeptide inhibiting angiogenesis and application thereof” (Shanghai First People's Hospital, priority 2008, dated 2015)", "key": {"[1]": {"system": "chick embryo chorioallantoic membrane", "format": "in vivo", "conditions": "10 μg or 50 μg AU6 on filter paper, 2 days, vs PBS control group", "method": "1.2 Preparation of Model and Intervention Test: The chick fertile eggs of 1-2 days old were randomly grouped into 3 groups, which were respectively a control group, a 10 μg AU6 intervention group, and a 50 μg AU6 intervention group, with 9-15 eggs for each group. The surface of the fertile eggs was cleansing with tap water, and then the eggs were soaked in 0.2% benzalkonium bromide (bromo-geramine) solution for 5-10 minutes. The eggs were placed with the blunt end upward, and hatched in an incubator under 37° C. and 60-70% humidity. The eggs were overturned for at least two times per day, and were hatched for 5 days with 24 hours as one day. Under sterile condition, a small hole of about 1-2cm^2 was created at the blunt end (air chamber end) with a nipper. […] Whatman filter papers with a diameter of 5mm were used as a sample carrier, each of which adsorbed 5 μl of PBS solution containing 0 μg, 10 μg or 50 μg of AU6. After air drying, the papers were placed into the center of the chorioallantoic membrane. […]\n1.3 Counting the Number of Micrangiums in the Chorioallantoic Membrane: the adhesive tape was removed, and the micrangiums newly generated on the chorioallantoic membrane were observed. The number of micrangiums (with diameter no greater than 10 μm) within 5 mm around the filter paper for each group was counted under stereomicroscope. […]"}, "[2]": {"system": "corneal angiogenesis induced by VEGF", "format": "in vivo", "from_the_text": "1.2 Experimental Animal and Material: Healthy, male C57B1/6 mice of 5-6 weeks old weighing about 20 g were purchased from Laboratory Animal Center of Chinese Academy of Sciences. Sucrose octasulfate-aluminum complex was purchased from Sigma-Aldrich, USA. PolyHEMA (poly(2-hydroxyethylmethacylate)) was purchased from Aldrich, USA. And human recombinant VEGF165 was purchased from SIGMA, USA.\n1.2 Preparation of Model and Intervention Test: 12% PolyHEMA in an ethanol solution was mixed with an equal volume of normal saline solution containing sucrose octasulfate-aluminum complex powder, thus forming blank slow-release particles with a volume of 0.35 mm*0.35 mm*0.20 mm. 160 ng of VEGF and different amounts (0 μg, 1.0 μg, 2.0 μg) of the small peptides were added into said particles. The resultant products were stored at −20° C., ready for use. The above operations were done under a sterile condition. Thirty C57B1/6 mice (30 eyes) were randomly grouped into a control group (VEGF group), VEGF+1.0 μg AU6 group, and VEGF+2.0 μg AU6 group, with 10 eyes for each group. Under a sterile condition, 23G syringe needle was used to perform blunt separation between the layers of the corneal stroma in the experimental eyes, so as to form a pouch of 0.5 mm*0.5 mm. The particles containing 160 ng VEGF and different amounts of small peptides were implanted into the pouches in the ocular cornea in the mice of each group, and were made to have a distance of 0.6-0.8 mm from limbus. After operation, 0.5% aureomycin oculentum was applied to the eyes to prevent infection and reduce irritation. Photos were obtained 7 days after operation to observe the growth of newly generated blood vessel in the cornea, and a histopathological examination was performed concurrently.\n1.3 Quantitative Measurement of Corneal Neovascularization: the length of the new blood vessels grown from limbus was measured 7 days after operation. The area of the new blood vessel was calculated based on the longest blood vessel which had less continuous bending and which grew toward the slow release particles. Formula is as follows: Area (mm^2)=[…]*π*VL (mm)*CN*0.4 (mm), wherein VL is the length of the longest new blood vessel grown from limbus to the cornea (maximal vessel length), and CN represents the clock hours of corneal neovascularization (the cornea is dividing into clock hours).\n1.4 Qualitative Observation of Corneal Neovascularization: Each group of animals was sacrificed by excessive anaesthesia 7 days after operation. The eyeballs were obtained under a sterile condition, and fixed in 10% neutral formaldehyde, and then subjected to histopathological examination. The samples were embedded within paraffin and cut into 3 μm sections, HE stained, and observed under light microscope.\n1.5 Statistical Analysis: The experimental data were represented as x±s. The length of the longest new blood vessel in cornea, clock hours and area for each group were compared by one-way ANOVA. P<0.05 indicates statistical significance."}, "[3]": {"system": "retinal neovascularization induced by anoxia", "format": "in vivo", "conditions": "intravitreal AU6 (5 μg, 10 μg) 12 days after birth, read 17 days after birth, vs model-treated group", "method": "1.1 Materials and Main Devices: Healthy, neonatal C57B1/6 mice, 7 days age, weighing about 4 g were purchased from Laboratory Animal Center of Chinese Academy of Sciences. The sex of the mice was not limited. FITC-dextran (molecular weight about 2*10^6) was purchased from SIGMA, USA.\n1.2 Preparation of Model and Intervention Test: Neonatal mice of 10 nests were randomly grouped into 5 groups, which respectively were oxygen group, oxygen plus PBS group, oxygen plus 5 μg AU6 group, oxygen plus 10 μg AU6 group, and control group, with 10-11 mice for each group. Seven days after birth, except the control group, all of the other groups of mice were placed in an airproof drying cabinet together with their mother mice of the same nest. Wet pure oxygen was introduced into the drying cabinet, and the oxygen concentration in volume was maintained as 75%±5%. The oxygen concentration was measured every 3-6 hours by using oxygen meter. The control group was incubated normally in air. Twelve days after birth, 0.5 μl PBS solution containing respectively 0, 5 μg, and 10 μg AU6 were injected into the vitreous chambers of the mice in the oxygen plus PBS group and in the oxygen plus AU6 group (5 μg, and 10 μg).\n1.3 FITC-dextran Retinal Angiography and Flat-mounts: Seventeen days after birth, 50 mg/ml FITC-dextran solution were perfused into the left ventricle of mice in each group. Then the eyeballs immediately were obtained, fixed in paraformaldehyde solution for 5-24 hours at 4° C. And then the retinas were isolated and flat-mounted. The morphological change of the retinal blood vessel was observed under fluorescence microscope.\n1.4 Quantitative Measurement of Retinal Neovascularization: The animals in each group were sacrificed by excessive anaesthesia 17 days after birth. The eyeballs were obtained, and fixed in 10% neutral formaldehyde, and then subjected to histopathological examination. […] The numbers of the nucleus of the vascular endothelial cells which broke through the retinal inner limiting membrane were counted under light microscope. […]"}, "[4]": {"assay": "Water solubility of synthesized polypeptide", "format": "physicochemical", "conditions": "white powder"}, "[5]": {"conditions": "160 ng VEGF + 1.0 or 2.0 μg AU6 slow-release particles, 7 days after operation, vs control group"}, "[6]": {"conditions": "7 days after operation, AU6 intervention group"}}}
{"substance": "YRGKKA ((1)..(6) Peptide AU6 for inhibiting angiogenesis)", "values": [{"measurement": "numbers of micrangiums within 5 mm around the filter paper", "setting": "[1]", "result": "significantly less"}, {"measurement": "clock hours of corneal neovascularization", "setting": "[2]; [5]", "result": "significant decrease"}, {"measurement": "longest blood vessel length of the new blood vessel", "setting": "[2]; [5]", "result": "significant decrease"}, {"measurement": "area of blood vessel", "setting": "[2]; 160 ng VEGF + 1.0 or 2.0 μg AU6 slow-release particles, 7 days after operation, vs control group, calculated from VL and CN", "result": "significant decrease"}, {"measurement": "blood capillary lumens in corneal stroma (HE stained sections)", "setting": "[2]; [6]", "result": "very few"}, {"measurement": "oedema in the corneal tissue (HE stained sections)", "setting": "[2]; [6]", "result": "no obvious oedema"}, {"measurement": "toxicity to each layer of corneal tissues", "setting": "[2]; mouse, in vivo", "result": "not observed"}, {"measurement": "neovascular clusters (FITC-dextran retinal flat-mounts)", "setting": "[3]", "result": "reduced"}, {"measurement": "non-perfusion area (FITC-dextran retinal flat-mounts)", "setting": "[3]", "result": "narrowed"}, {"measurement": "nucleus of vascular endothelial cells which broke through the inner limiting membrane", "setting": "[3]", "result": "obviously less"}, {"measurement": "water solubility", "setting": "[4]", "result": "good"}]}
